Data on two compounds can be found in PMC6132687, “Stem cells are the most sensitive screening tool to identify toxicity of GATA4-targeted novel small-molecule compounds” (Archives of Toxicology, 2018).

Data set [1] concerns hiPSC-CMs. Briefly: MTT assay in hiPSC-CMs. Format: cell-based, human. The settings on record: 24 h. The procedure:
The cells were exposed to the test compounds for 24 h and cytotoxicity was quantified with MTT and LDH assays as described previously (Talman et al. [2011]). For the determination of cell membrane integrity, 50 µl of medium from each well was transferred onto a new 96-well plate followed by addition of 50 µl of substrate solution containing 1.3 mM β-nicotinamide adenine dinucleotide, 660 µM iodonitrotetrazolium, 54 mM L(+)-lactic acid, 280 µM phenazine methosulphate and 0.2 M Tris–HCl (pH 8.0). After a 30-min incubation, the reaction was stopped by adding 50 µl of 1 M acetic acid to each well and absorbance was measured at 490 nm using Victor2 plate reader (PerkinElmer, Turku, Finland). Spontaneous LDH release was measured from untreated cells, maximal LDH release from cells lysed with 0.9% Triton X-100 and background absorbance was measured from wells without cells. After background extraction, cytotoxicity was calculated as follows: cytotoxicity (%) = [(sample − spontaneous LDH release)/(maximal LDH release − spontaneous LDH release)] × 100. For quantification of metabolic activity, 3-(4,5-dimethylthiazol-2-yl)-2,5-diphenyltetrazolium bromide (MTT) was added to the cells at a final concentration of 0.5 mg/ml followed by 2 h incubation in cell culture conditions. […] Absorbance was measured at 550 nm and absorbance at 650 nm was subtracted as background. […]
For orientation: Tetrazolium assays rely on reduction of a dye to a coloured formazan, in cell work by metabolically active cells.

Data set [2] has as its system NRVCs. Also noted: method as in Välimäki et al. [2017]. The settings on record: concentrations up to 50 µM; ref Välimäki et al. [2017]; cited from earlier work.

Turning to `CCN(CC)c1ccc(NC(=O)c2c(C)noc2-c2cc(C)on2)cc1` [3i-1047], in data set [1], the “increase in hiPSC-CM metabolic activity” value worked out at 51%. In the case of `CCN(CC)c1ccc(NC(=O)c2c(-c3ccccc3)noc2C)cc1` [3i-1000], in data set [2], the “toxicity in NRVCs” value is “no toxicity”.
